Active and inactive are the calls of the source.
How the values were obtained:
[1] = Luminescence Cell-Based Dose Retest to Confirm Inhibitors of Cancer Stem Cells. [Related pubchem assays (depositor defined):AID2717, AID2721]; format: functional; conditions: Homo sapiens
BJ [2] = experiment: BJ-TERT fibroblast viability loss – cell-based, RAS-independent, luminescence, dose response (AID 1933); format: functional; conditions: Homo sapiens
Streptokinase A = target: T1, Streptokinase A (Streptococcus pyogenes serotype M1, UniProt P10520); experiment: viability-normalized secreted streptokinase activity reduction – plasminogen activation absorbance, OD405, dose response (AID 1914); format: functional, Streptococcus pyogenes M1 GAS;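 further: secreted streptokinase activity via plasminogen activation per viability signal from cell pellet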
T1 sequence (P10520 whole entry): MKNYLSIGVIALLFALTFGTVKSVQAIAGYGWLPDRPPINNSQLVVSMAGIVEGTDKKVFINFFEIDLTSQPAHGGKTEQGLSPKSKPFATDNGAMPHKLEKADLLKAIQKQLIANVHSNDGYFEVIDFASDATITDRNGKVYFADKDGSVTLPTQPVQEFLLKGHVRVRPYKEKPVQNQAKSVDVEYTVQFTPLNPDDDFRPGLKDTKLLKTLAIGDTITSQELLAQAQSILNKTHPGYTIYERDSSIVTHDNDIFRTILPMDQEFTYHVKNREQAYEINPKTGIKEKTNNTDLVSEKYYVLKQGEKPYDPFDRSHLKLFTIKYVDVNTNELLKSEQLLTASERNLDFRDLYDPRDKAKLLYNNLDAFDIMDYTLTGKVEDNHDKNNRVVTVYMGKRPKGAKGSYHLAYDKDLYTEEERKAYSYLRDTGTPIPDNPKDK

[3] = target: Sphingosine 1-phosphate receptor 4 (Homo sapiens, UniProt O95977); experiment: Fluorescence dose response cell-based high throughput screening assay for antagonists of the Sphingosine 1-Phosphate Receptor 4 (S1P4). [Related pubchem assays: 1524 (Confirmation in triplicates.), 1510 (Primary screen.)]; format: functional
[4] = HEK-293T viability loss after treatment – luminescence, T-cell screen hits, cytotoxicity control for TCR NF-kB inhibitor project, dose response (AID 489026); format: functional, cell-based;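 further: cells exposed to compound about 14 hours before the viability readout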
BJ [5] = experiment: growth inhibition of engineered Ras-driven BJ cells – cell-based, alamar blue fluorescence, cherrypicked samples, dose response (AID 2631); format: functional; conditions: Homo sapiens;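 further: confirmatory dose-response assay in RAS-dependent BJ fibroblasts engineered with TERT, LT and ST, with cytotoxicity read by fluorescence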
INS1 = experiment: INS-1E survival protection against cytokine death – cell-based, luminescence, retest, dose response (AID 449756); format: functional; conditions: Rattus norvegicus;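 further: cell death triggered by IL-1 beta plus TNF-alpha plus IFN-gamma mixture; protective hits raise ATP signal compared with cytokine alone wells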
[6] = target: T2, Intestinal-type alkaline phosphatase (Mus musculus, UniProt P24822); experiment: PubChem AID 488874; format: functional
T2 sequence (P24822 whole entry): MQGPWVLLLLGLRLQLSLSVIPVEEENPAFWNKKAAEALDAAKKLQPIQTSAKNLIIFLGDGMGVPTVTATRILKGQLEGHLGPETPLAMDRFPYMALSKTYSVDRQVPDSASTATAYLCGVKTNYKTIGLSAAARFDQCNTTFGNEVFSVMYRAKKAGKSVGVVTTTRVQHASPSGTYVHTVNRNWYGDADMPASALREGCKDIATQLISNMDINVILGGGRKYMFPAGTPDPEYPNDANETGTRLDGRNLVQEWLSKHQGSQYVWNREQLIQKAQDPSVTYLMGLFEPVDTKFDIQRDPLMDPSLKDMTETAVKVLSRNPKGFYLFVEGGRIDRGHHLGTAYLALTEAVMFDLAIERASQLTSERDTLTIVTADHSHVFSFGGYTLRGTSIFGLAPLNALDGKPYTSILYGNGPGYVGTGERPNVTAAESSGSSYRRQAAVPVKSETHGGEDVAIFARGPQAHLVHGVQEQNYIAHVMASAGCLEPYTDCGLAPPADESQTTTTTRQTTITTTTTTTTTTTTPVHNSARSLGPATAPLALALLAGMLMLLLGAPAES

[7] = target: T2, Intestinal-type alkaline phosphatase; experiment: PubChem AID 488785; format: functional
[8] = target: Megakaryocyte-associated tyrosine-protein kinase (Homo sapiens, UniProt P42679); format: functional;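 further: affinity measured as one member of a kinase panel (Navigating the Kinome) against MATK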
[9] = target: cGMP-dependent protein kinase 1 (Homo sapiens, UniProt Q13976); format: functional;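 further: value from a kinome panel screen with PRKG1 as the panel member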
[10] = target: RAC-gamma serine/threonine-protein kinase (Homo sapiens, UniProt Q9Y243); format: functional
Sequence of RAC-gamma serine/threonine-protein kinase (Q9Y243 whole entry): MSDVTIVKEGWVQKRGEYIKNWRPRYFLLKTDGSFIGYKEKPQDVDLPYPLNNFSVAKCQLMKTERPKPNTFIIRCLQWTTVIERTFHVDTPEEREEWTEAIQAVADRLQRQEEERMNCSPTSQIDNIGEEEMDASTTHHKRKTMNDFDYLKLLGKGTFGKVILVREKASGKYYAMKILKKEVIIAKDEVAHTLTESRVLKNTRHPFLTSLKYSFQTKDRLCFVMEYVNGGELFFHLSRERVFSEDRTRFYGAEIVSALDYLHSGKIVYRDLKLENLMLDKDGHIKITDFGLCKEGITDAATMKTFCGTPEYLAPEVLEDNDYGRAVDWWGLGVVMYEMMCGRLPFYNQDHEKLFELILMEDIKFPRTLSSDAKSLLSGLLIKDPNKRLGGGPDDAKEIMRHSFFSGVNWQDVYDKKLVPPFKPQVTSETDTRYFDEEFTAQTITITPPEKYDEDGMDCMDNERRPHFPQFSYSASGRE

[11] = target: Protein kinase C delta type (Homo sapiens, UniProt Q05655); format: functional
[12] = target: Serine/threonine-protein kinase PLK4 (Homo sapiens, UniProt O00444); format: functional;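 further: PLK4 measured as one member of a kinome-wide kinase profiling panel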
[13] = target: Proto-oncogene tyrosine-protein kinase receptor Ret (Homo sapiens, UniProt P07949); format: functional;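 further: measured within a kinome-wide profiling panel, RET as the panel member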
[14] = target: Serine/threonine-protein kinase D2 (Homo sapiens, UniProt Q9BZL6); format: functional;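 further: measured against PRKD2 as one member of a kinome-wide kinase profiling panel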
[15] = target: Ribosomal protein S6 kinase beta-1 (Homo sapiens, UniProt P23443); format: functional;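 further: measured as one member of a kinome-wide profiling panel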
Sequence of Ribosomal protein S6 kinase beta-1 (P23443 whole entry): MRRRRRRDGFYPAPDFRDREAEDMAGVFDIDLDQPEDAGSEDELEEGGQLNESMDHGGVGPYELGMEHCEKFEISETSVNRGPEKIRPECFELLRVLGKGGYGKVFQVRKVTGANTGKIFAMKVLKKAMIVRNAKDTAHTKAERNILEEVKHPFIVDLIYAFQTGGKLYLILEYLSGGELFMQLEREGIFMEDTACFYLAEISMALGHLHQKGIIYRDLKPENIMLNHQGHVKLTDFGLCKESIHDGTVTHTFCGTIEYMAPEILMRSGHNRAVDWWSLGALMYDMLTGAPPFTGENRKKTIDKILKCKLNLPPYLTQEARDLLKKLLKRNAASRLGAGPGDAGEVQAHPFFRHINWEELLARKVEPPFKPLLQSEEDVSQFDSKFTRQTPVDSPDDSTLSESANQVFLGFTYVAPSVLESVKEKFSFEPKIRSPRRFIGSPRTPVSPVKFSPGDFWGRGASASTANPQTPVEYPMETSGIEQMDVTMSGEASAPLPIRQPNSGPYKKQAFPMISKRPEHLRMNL

[16] = target: Tyrosine-protein kinase Lck (Homo sapiens, UniProt P06239); format: functional;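 further: lck was assayed as one member of a kinase panel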
Sequence of Tyrosine-protein kinase Lck (P06239 whole entry): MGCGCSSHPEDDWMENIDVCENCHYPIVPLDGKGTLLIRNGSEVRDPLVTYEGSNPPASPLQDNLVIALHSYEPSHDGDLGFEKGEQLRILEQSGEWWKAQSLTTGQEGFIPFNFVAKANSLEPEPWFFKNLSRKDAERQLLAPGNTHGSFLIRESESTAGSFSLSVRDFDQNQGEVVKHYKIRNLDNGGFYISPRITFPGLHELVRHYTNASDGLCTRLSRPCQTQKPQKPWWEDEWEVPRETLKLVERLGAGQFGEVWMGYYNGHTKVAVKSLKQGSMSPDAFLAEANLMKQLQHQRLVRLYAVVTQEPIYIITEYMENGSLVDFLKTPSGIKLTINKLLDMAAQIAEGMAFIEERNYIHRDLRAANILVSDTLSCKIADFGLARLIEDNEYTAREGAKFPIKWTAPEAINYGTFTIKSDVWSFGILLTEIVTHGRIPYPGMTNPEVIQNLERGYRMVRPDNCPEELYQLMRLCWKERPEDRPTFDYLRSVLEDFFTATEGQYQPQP

[17] = target: Mitogen-activated protein kinase 8 (Homo sapiens, UniProt P45983); format: functional;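 further: value comes from one member of a kinome-wide kinase profiling panel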
Sequence of Mitogen-activated protein kinase 8 (P45983 whole entry): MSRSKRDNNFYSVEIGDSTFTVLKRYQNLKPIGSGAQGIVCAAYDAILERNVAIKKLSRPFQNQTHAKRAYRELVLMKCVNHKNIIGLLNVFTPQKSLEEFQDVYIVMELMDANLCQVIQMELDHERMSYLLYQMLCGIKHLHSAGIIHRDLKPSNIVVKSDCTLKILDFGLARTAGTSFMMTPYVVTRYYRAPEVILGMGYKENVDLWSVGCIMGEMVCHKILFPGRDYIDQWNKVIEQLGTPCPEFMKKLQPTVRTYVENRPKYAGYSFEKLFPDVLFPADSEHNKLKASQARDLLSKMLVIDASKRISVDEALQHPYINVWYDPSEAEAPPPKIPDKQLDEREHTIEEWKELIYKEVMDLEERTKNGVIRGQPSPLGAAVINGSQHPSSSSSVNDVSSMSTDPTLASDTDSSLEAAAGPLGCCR

[18] = target: Serine/threonine-protein kinase pim-1 (Homo sapiens, UniProt P11309); format: functional
[19] = target: MAP kinase-activated protein kinase 5 (Homo sapiens, UniProt Q8IW41); format: functional;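 further: measured as one member of a kinome panel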
[20] = target: Serine/threonine-protein kinase PAK 1 (Homo sapiens, UniProt Q13153); format: functional
[21] = target: Tyrosine-protein kinase Lyn (Homo sapiens, UniProt P07948); format: functional;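 further: lyn as one member of a kinase panel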
Sequence of Tyrosine-protein kinase Lyn (P07948 whole entry): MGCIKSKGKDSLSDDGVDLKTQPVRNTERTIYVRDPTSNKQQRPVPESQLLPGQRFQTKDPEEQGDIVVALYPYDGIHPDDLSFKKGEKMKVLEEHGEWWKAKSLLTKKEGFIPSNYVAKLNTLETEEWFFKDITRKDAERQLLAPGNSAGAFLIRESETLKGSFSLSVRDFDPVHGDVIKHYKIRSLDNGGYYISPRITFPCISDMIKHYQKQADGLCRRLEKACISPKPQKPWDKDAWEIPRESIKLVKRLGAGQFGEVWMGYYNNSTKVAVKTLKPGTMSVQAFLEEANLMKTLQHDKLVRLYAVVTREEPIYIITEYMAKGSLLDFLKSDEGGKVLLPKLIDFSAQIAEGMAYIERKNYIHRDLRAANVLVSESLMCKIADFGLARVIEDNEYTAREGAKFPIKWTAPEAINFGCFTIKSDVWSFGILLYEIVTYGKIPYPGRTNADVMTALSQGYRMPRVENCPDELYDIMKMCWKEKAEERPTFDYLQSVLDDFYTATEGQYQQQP

[22] = target: Mitogen-activated protein kinase 9 (Homo sapiens, UniProt P45984); format: functional;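 further: value from a kinome panel profiling assay, MAPK9 panel entry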
[23] = target: Serine/threonine-protein kinase TAO1 (Homo sapiens, UniProt Q7L7X3); format: functional
[24] = target: Protein-tyrosine kinase 2-beta (Homo sapiens, UniProt Q14289); format: functional
[25] = target: Non-receptor tyrosine-protein kinase TYK2 (Homo sapiens, UniProt P29597); format: functional
[26] = target: Hepatocyte growth factor receptor (Homo sapiens, UniProt P08581); format: functional;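 further: kinase panel profiling across the kinome, with MET as the panel member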
Activated CDC42 kinase 1 = Activated CDC42 kinase 1 (Homo sapiens, UniProt Q07912); experiment: Navigating the Kinome. Panel member name: ACK1; format: functional
Sequence of Activated CDC42 kinase 1 (Q07912 whole entry): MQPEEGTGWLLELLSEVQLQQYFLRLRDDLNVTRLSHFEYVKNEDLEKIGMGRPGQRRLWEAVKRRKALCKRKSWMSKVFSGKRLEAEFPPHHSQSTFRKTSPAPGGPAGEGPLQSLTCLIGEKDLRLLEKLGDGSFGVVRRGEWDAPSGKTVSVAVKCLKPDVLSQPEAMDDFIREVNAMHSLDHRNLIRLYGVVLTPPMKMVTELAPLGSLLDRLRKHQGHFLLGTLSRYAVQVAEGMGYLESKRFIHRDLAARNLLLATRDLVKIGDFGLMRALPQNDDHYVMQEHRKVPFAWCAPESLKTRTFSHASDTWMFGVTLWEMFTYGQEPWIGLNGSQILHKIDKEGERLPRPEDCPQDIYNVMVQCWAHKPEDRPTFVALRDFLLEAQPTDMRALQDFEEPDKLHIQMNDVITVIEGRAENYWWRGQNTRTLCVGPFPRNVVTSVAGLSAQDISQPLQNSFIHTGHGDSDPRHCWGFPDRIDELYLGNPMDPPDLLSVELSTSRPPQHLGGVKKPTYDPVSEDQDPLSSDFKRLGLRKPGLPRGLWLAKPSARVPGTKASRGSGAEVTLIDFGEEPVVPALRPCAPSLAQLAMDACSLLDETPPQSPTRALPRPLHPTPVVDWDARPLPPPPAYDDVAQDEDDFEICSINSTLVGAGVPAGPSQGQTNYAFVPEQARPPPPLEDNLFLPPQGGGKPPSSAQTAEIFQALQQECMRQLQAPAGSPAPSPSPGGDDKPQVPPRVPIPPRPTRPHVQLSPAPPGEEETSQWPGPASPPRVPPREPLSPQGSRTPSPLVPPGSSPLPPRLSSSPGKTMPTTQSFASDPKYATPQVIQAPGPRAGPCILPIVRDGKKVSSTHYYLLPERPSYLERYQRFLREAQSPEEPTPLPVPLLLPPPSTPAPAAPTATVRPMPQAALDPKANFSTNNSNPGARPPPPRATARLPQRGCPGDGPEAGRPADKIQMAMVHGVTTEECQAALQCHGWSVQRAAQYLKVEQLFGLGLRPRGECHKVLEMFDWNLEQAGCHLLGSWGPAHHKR

[27] = target: Serine/threonine-protein kinase Chk1 (Homo sapiens, UniProt O14757); format: functional;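 further: measured as one member of a kinome-wide kinase profiling panel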
[28] = target: Dual specificity tyrosine-phosphorylation-regulated kinase 1B (Homo sapiens, UniProt Q9Y463); experiment: Navigating the Kinome. Panel member name: DYRK1B; format: functional
Focal adhesion kinase 1 = Focal adhesion kinase 1 (Homo sapiens, UniProt Q05397); format: functional;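 further: measured as one member of a kinome panel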
[29] = target: Mitogen-activated protein kinase kinase kinase kinase 5 (Homo sapiens, UniProt Q9Y4K4); format: functional;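 further: measured as one member of a kinome-spanning kinase panel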
[30] = target: Vascular endothelial growth factor receptor 3 (Homo sapiens, UniProt P35916); format: functional;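 further: value from a kinome-wide profiling panel, with FLT4 as the panel member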
[31] = target: Cyclin-dependent kinase 1 (Homo sapiens, UniProt P06493); format: functional;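 further: Kinome-wide panel profiling, with the target listed as panel member CDC2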
[32] = target: Serine/threonine-protein kinase pim-2 (Homo sapiens, UniProt Q9P1W9); format: functional;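 further: value comes from a broad kinase panel profiling study in which PIM2 was one of the panel members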
[33] = target: Serine/threonine-protein kinase DCLK1 (Homo sapiens, UniProt O15075); format: functional;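 further: affinity for DCLK1 (listed as DCAMKL1) measured as one member of a kinome-wide kinase profiling panel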
Sequence of Serine/threonine-protein kinase DCLK1 (O15075 whole entry): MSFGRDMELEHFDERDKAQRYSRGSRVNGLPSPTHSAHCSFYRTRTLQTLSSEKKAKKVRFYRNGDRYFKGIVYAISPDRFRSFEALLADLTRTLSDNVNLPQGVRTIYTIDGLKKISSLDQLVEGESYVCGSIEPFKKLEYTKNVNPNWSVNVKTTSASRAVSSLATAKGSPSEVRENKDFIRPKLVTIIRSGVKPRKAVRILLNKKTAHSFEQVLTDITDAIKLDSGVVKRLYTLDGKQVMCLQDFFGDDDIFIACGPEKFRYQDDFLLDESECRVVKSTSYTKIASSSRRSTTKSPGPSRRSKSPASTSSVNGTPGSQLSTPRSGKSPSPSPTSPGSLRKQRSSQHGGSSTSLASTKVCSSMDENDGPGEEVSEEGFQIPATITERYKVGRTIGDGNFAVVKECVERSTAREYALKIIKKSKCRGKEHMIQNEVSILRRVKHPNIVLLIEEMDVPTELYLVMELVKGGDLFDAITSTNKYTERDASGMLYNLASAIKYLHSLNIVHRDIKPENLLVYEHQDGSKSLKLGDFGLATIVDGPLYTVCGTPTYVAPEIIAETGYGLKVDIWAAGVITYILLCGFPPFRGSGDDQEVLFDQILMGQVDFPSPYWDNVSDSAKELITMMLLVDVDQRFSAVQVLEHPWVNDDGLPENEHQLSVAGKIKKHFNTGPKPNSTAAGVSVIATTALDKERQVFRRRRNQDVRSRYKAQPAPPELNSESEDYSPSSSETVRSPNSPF

[34] = target: Inhibitor of nuclear factor kappa-B kinase subunit epsilon (Homo sapiens, UniProt Q14164); experiment: Navigating the Kinome. Panel member name: IKBKE; format: functional
[35] = target: Epidermal growth factor receptor (Homo sapiens, UniProt P00533)
HeLa = experiment: viability loss in HeLa cells – cell-based, 24 h, cherry-picked samples, cytotoxicity control, dose response (AID 504726); format: functional; conditions: Homo sapiens;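 further: potency for cytotoxicity as loss of luminescence signal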

## CN(C)S(=O)(=O)Oc1cccc(C(=O)Nc2ccc(Cl)c(Cl)c2)c1
[1]
  AC50: 8.64 µM (active)

## COC(=O)C1CN(C#N)N(c2ccc(Cl)cc2)C12c1ccccc1-c1ccccc12 (stereo not given)
BJ [2]
  EC50: 1.93 µM (active)
Streptokinase A
  EC50: 0.744 µM (active)
[3]
  IC50: 0.313 µM (active)
[4]
  IC50: 56.6 µM (inactive)
BJ [5]
  EC50: 0.563 µM (inconclusive)
INS1
  AC50: 2.5 µM (active)

## O=C(NN1C(=O)CSC1=S)C(=O)NN1C(=O)CSC1=S
[6]
  IC50: 3.84 µM (active)
[7]
  IC50: 7.75 µM (active)

## Nc1noc2cccc(-c3cccc(O)c3)c12
[8]
  Ki: > 2 µM (inactive)
[9]
  Ki: > 2 µM (inactive)
[10]
  Ki: > 10 µM (inactive)
[11]
  Ki: > 7.94 µM (inactive)
[12]
  Ki: 2 µM (active)
[13]
  Ki: 0.794 µM (active)
[14]
  Ki: 7.94 µM (active)
[15]
  Ki: 0.126 µM (active)
[16]
  Ki: > 25.1 µM (inactive)
[17]
  Ki: > 25.1 µM (inactive)
[18]
  Ki: 12.6 µM (active)
[19]
  Ki: > 1.58 µM (inactive)
[20]
  Ki: > 10 µM (inactive)
[21]
  Ki: > 1.58 µM (inactive)
[22]
  Ki: > 3.98 µM (inactive)
[23]
  Ki: > 25.1 µM (inactive)
[24]
  Ki: > 1.58 µM (inactive)
[25]
  Ki: > 2 µM (inactive)
[26]
  Ki: > 12.6 µM (inactive)
Activated CDC42 kinase 1
  Ki: 25.1 µM (active)
[27]
  Ki: > 7.94 µM (inactive)
[28]
  Ki: 3.16 µM (active)
Focal adhesion kinase 1
  Ki: > 39.8 µM (inactive)
[29]
  Ki: > 7.94 µM (inactive)
[30]
  Ki: > 6.31 µM (inactive)
[31]
  Ki: > 7.94 µM (inactive)
[32]
  Ki: > 1.58 µM (inactive)
[33]
  Ki: > 10 µM (inactive)
[34]
  Ki: 39.8 µM (active)
[35]
  Ki: > 2 µM (inactive)

## O=C1NC(=S)S/C1=C\C=C\c1ccc([N+](=O)[O-])o1
HeLa
  AC50: 12.5 µM (active)

Source: ChEMBL document CHEMBL1201862, “PubChem BioAssay data set” (2004)
